Assay results reported in publication PMC12010937, “Evaluation of FXR Activity in Pollutants Identified in Sewage Sludge and Subsequent in Vitro and in Vivo Characterization of Metabolic Effects of Triphenyl Phosphate” (Environmental Health Perspectives, 2025).
Where “and” joins values, the source holds several entries; their conditions need not be identical. Equal values may be shown once.

Key:
[1] = biological target: T1, human FXR-LBD (GST-FXR-LBD) (Homo sapiens, UniProt Q96RI1); assay: HTRF coactivator recruitment assay, antagonist mode (in the presence of 50 μM CDCA); type: biochemical; settings: FXR antagonists (Figure S3B), replicates
T1 construct: the human FXR-LBD (residues 234–472) was expressed as a GST fusion protein GST-FXR-LBD; made in house; host or cells: E. coli BL21(DE3)
T1 sequence (Q96RI1 234-472 isoform Q96RI1-2): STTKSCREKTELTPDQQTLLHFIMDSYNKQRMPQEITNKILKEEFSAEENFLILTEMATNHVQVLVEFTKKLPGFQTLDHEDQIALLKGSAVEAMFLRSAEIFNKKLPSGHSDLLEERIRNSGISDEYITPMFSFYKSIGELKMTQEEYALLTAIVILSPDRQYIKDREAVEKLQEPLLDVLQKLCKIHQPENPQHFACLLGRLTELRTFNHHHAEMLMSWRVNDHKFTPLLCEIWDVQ

[2] = biological target: T2, human FXR-LBD (6His-FXR-LBD) (Homo sapiens, UniProt Q96RI1); assay: FXR protein affinity pull-down assay; type: binding; settings: 100 nM OCA
T2 construct: human FXR (residues 243–472) was expressed and purified as an amino-terminal 6His fusion protein; made in house; host or cells: E. coli BL21(DE3)
T2 sequence (Q96RI1 243-472 isoform Q96RI1-2): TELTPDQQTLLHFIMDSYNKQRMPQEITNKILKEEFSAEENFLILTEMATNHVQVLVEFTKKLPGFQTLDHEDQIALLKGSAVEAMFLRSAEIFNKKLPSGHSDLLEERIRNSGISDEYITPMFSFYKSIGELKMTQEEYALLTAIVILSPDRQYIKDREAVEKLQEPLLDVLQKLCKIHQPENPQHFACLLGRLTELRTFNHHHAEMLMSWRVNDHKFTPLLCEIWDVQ
Source text: The ligand binding domain (LBD) of human FXR (residues 243–472) was expressed and purified as an amino-terminal 6His fusion protein based on the prokaryotic expression vector pACYCDuet-1, and the pACYCDuet-1-6His-FXR-LBD plasmid was synthesized by the Beijing Genomics Institute (BGI). In detail, the gene encoding human FXR-LBD was first synthesized by BGI and then subcloned into the pACYCDuet-1 vector predigested with BamHI/NotI (SE0054/SE0594; SibEnzyme) according to the manufacturer’s protocol. In brief, the vector was predigested at 37°C for 15 min, subsequently mixed with the synthesized FXR-LBD cDNA and seamless assembly mix (BGI), and incubated at 52°C for 30 min. Then, the new plasmid construct pACYCDuet-1-6His-FXR-LBD was transformed into Escherichia coli Top10 Competent Cells (BGI) by heat shock transformation (the mixture was incubated on ice for 30 min, then incubated at 42°C for 90 s and transferred to ice for 3 min). Finally, the pACYCDuet-1-6His-FXR-LBD plasmid were extracted from the positive clone, confirmed by sequencing and provided by BGI. The pACYCDuet-1-6His-FXR-LBD plasmid was transformed into E. coli BL21(DE3) cells (Tiangen Biotech) by heat shock transformation (the mixture was incubated on ice for 30 min, then incubated at 42°C for 90 s, and then transferred to ice for 3 min). The transformed E. coli was grown in lysogeny broth (LB) medium at 37°C to OD600 about 0.8–1.0, and then protein expression was induced with 0.5 mM isopropyl β-d-1-thiogalactopyranoside (IPTG) at 25°C for 5 h. The cells were harvested by centrifugation at 4°C and 5,000×g for 10 min, and the harvested cells were subjected to ultrasonic disruption (5 s on, 7 s off, 150 cycles) using an ultrasonic homogenizer (Ningbo Scientz Biotechnology) and centrifugation at 4°C and 12,000×g for 1 h. […] Finally, the purity of the 6His-FXR-LBD protein was detected by sodium dodecyl sulfate-polyacrylamide gel electrophoresis (SDS-PAGE) with 4%–15% Bis-tris SDS-PAGE gel (Sangon Biotech), which was stained with Coomassie brilliant blue R250 Protein Stain Reagent (Coolaber). […]

FXR = system: FXR; parameters: method as in PMID 12166927; settings: read-out: EC50 (FXR agonist); cited from earlier work
[3] = biological target: T1, human FXR-LBD (GST-FXR-LBD); assay: HTRF coactivator recruitment assay, agonist mode; type: biochemical; settings: FXR agonists (Figure S3A), replicates

Compound: CC[C@H]1[C@@H](O)[C@@H]2[C@H](CC[C@]3(C)[C@@H]([C@H](C)CCC(=O)O)CC[C@@H]23)[C@@]2(C)CC[C@@H](O)C[C@@H]12 [OCA, obeticholic acid]
- Recovery of OCA pulled down by control protein ([2]; boiled inactivated (denatured) FXR-LBD as negative control, n=3): 4.69% and 4.09% and 4.45%
- Recovery of OCA pulled down by the FXR-LBD protein ([2]; purified 6His-FXR-LBD, n=3): 91.28% and 89.1% and 85.93%
